Patent US5907038A, “Azepanes” (Hoffmann-La Roche Inc., priority 1995, dated 1999)
Counter-ions that a name gives are not always drawn.

How the values were obtained:
protein kinase C (PKC) = assay: Inhibition of protein kinase C (PKC) (isolated enzyme); assay type: biochemical; details: partially purified PKC from swine brain; histone H1 substrate; 32° C., 2 minutes; read-out: IC50 (Test Procedure A)
Method: A: Inhibition of protein kinase C (PKC) (isolated enzyme): Protein kinase C (PKC) activity is determined by measuring the transfer of ^32 P-labelled phosphate from ^32 P-g-ATP ([…]) to histone H1 ([…]) as the substrate. Partially purified PKC from swine brain is used as the enzyme source [DEAE chromatography according to the method of U. Kikkawa et al. (Methods Enzymol. 99, 288, 1983)]. Activation of the PKC is effected by phospholipid vesicle prepared by ultrasound treatment of a mixture of 0.05 ml of phosphatidylserine (10 mg/ml) and 0.005 ml of diolein (10 mg/ml) in 5 ml of Tris-HCl buffer (20 mM, pH 7.4). The test substances are used in dimethyl sulphoxide (DMSO)/buffer in the concentration range […]. The test is started by the addition of enzyme; after incubation at 32° C. for 2 minutes the reaction is stopped by the addition of 20% trichloroacetic acid (with 1% SDS and 1% sodium pyrophosphate). The precipitated radioactive histone protein is separated from excess ATP by filtration over nitrocellulose membranes and the radioactivity on the filter is measured in a scintillation counter. The inhibitory activity of the test substance is given as the micromolar concentration which is required to reduce the PKC activity by 50% ([…]).

[1] = molecular target: cAMP-dependent protein kinase (PKA); assay: Inhibition of cAMP-dependent protein kinase (PKA); assay type: biochemical; details: partially purified PKA from swine brain; histone H1 substrate; cyclic AMP activation; 32° C., 2 minutes; read-out: IC50 (Test Procedure B)
Method: B: Inhibition of cAMP-dependent protein kinase (PKA): PKA activity is determined by measuring the transfer of ^32 P-labelled phosphate from ^32 P-g-ATP ([…]) to histone H1 ([…]) as the substrate. Partially purified PKA from swine brain is used as the enzyme source [DEAE chromatography according to the method of U. Kikkawa et al. (Methods Enzymol. 99, 288, 1983)]. Activation of the PKA is effected by cyclic AMP (2 mM) in Tris-HCl buffer (20 mM, pH 7.4). The test substances are used in dimethyl sulfoxide (DMSO)/buffer in the concentration range […]. The test is started by the addition of enzyme; after incubation at 32° C. for 2 minutes the reaction is stopped by the addition of 20% trichloroacetic acid (with 1% SDS and 1% sodium pyrophosphate). The precipitated radioactive histone protein is separated from excess ATP by filtration over nitrocellulose membranes and the radioactivity on the filter is measured in a scintillation counter. The inhibitory activity of the test substance is given as the micromolar concentration which is required to reduce the PKA activity by 50% ([…]).

Mouse Hair Follicle = assay: Cell proliferation in cultured mouse hair follicles (3H-thymidine incorporation, DNA synthesis); assay type: cell-based, mouse (CD-1); details: for Emax: 3H-thymidine incorporation as percentage of control, whisker follicles of 4-day-old CD-1 mice, read-out: Mouse Hair Follicle DNA Synthesis Maximal Stimulation; for EC50: concentration giving 50% of the maximal stimulation of DNA synthesis
Method: C: Cell proliferation in cultured mouse hair follicles Mouse whisker follicles were isolated and cultured according to the method described by Buhl et al., J. Invest. Dermatol. 92, 315-320 (1989). Whisker pads were removed from 4-day-old CD-1 mice and vibrissae were carefully separated from the surrounding tissue with forceps under a dissecting microscope. Four hair follicles were incubated at 37° C. in 2 cm^2 wells in 1 ml of M199 medium containing 20% fetal bovine serum, in the presence or absence of test compound at varying concentrations. Each treatment group consisted of four wells. After 1 day of culture. ^3 H-thymidine was added to the wells to a final concentration of 5 μCi/ml and the follicles were incubated for a further three days. The follicles were then washed with phosphate-buffered saline and incorporated radioactivity was solubilized by addition of 0.5 ml of 1.0M NaOH and incubation for 18 h at 37° C. An aliquot of the alkali extracted was taken for measurement of radioactivity and results were expressed as dpm/follicle. Calculation of maximal stimulation and ED50 values The hair follicle ^3 H-thymidine incorporation values (dpm/follicle), obtained as described above, were then expressed as a percentage of control levels as follows: % control DNA synthesis for test compound=((treatment dpm/follicle)/(control dpm/follicle))×100 The dose-response relationship for each compound was then used to determine: 1) the maximal stimulation of DNA synthesis obtained for that compound, expressed as a percentage of control levels, and 2) the ED50 value, or the concentration (μM) of compound that gave rise to 50% of the maximal stimulation of DNA synthesis.

Row | Structure (SMILES) | IC50 (protein kinase C (PKC)) | IC50 [1] | Emax (Mouse Hair Follicle) | EC50 (Mouse Hair Follicle)
1 | O=C(N[C@@H]1CNCCC[C@H]1OC(=O)c1ccc(O)c(O)c1)c1ccc(O)cc1 [I/15, 3,4-Dihydroxy-benzoic acid (3R,4R)-3-(4-hydroxy-benzoylamino)-azepan-4-yl ester trifluoroacetate (1:1)] | 8.8 µM | 0.07 µM | – | –
2 | COc1cc2c(O)cccc2cc1C(=O)O[C@@H]1CCCNC[C@H]1NC(=O)c1ccc(O)cc1 [I/19, 5-Hydroxy-3-methoxy-naphthalene-2-carboxylic acid (3R,4R)-3-(4-hydroxy-benzoylamino)-azepan-4-yl ester trifluoroacetate (1:1)] | 24 µM | 0.041 µM | 371 ± 50% | 30 µM
3 | CN(C(=O)c1ccccc1O)c1ccc(C(=O)O[C@@H]2CCCNC[C@H]2NC(=O)c2ccc(O)cc2)cc1 [I/25, 4-[(2-Hydroxy-benzoyl)-methyl-amino]-benzoic acid (3R,4R)-3-(4-hydroxy-benzoylamino)-azepan-4-yl ester trifluoroacetate (1:1)] | 26 µM | 1.9 µM | – | –
4 | O=C(N[C@@H]1CNCCC[C@H]1OC(=O)c1ccc(S(=O)(=O)Oc2ccccc2O)cc1)c1ccc(O)cc1 [I/28, 4-(2-Hydroxy-phenoxysulfonyl)-benzoic acid (3R,4R)-3-(4-hydroxy-benzoylamino)-azepan-4-yl ester hydrochloride (1:1)] | – | – | 349 ± 25% | 40 µM
5 | O=C(N[C@@H]1CNCCC[C@H]1OC(=O)c1ccc(O)cc1)c1ccc(OC(=O)c2c(O)cccc2O)cc1 [II/1, 4-Hydroxy-benzoic acid (3R,4R)-3-[4-(2,6-dihydroxy-benzoyloxy)-benzoylamino]-azepan-4-yl ester trifluoroacetate (1:1)] | 30 µM | 0.038 µM | 468 ± 26% | 10 µM
6 | O=C(N[C@@H]1CNCCC[C@H]1OC(=O)c1ccc(O)cc1)c1ccc(O)cc1 [III/1, 4-Hydroxy-benzoic acid (3R,4R)-3-(4-hydroxy-benzoylamino)-azepan-4-yl ester hydrochloride (1:1)] | 10 µM | 0.026 µM | 534 ± 52% | 5 µM
